The NIST ThermoML archive (doi:10.1021/je900387e)
Numbers after ± are expanded uncertainties.

Assay: xn = mol fraction of the nth substance listed
Details: Liquid, Pycnometric method

Cn1ccnc1 [1-methylimidazole] + O=C=O
Details | mass density [kg/m3]
313.1 K, 11200 kPa, x1 = 0.0247 | 802 ± 4
313.1 K, 11280 kPa, x1 = 0.0487 | 852 ± 4
313.1 K, 11440 kPa, x1 = 0.0487 | 855 ± 4
313.1 K, 11540 kPa, x1 = 0.0102 | 771 ± 4
313.1 K, 11540 kPa, x1 = 0.1024 | 928 ± 4
313.1 K, 11580 kPa, x1 = 0.0247 | 811 ± 4
313.1 K, 11620 kPa, x1 = 0.0487 | 858 ± 4
313.1 K, 11740 kPa, x1 = 0.1024 | 930 ± 4
313.1 K, 11790 kPa, x1 = 0.0487 | 860 ± 4
313.1 K, 11980 kPa, x1 = 0.0487 | 862 ± 4
313.1 K, 11990 kPa, x1 = 0.1024 | 933 ± 4
313.1 K, 12000 kPa, x1 = 0.0247 | 819 ± 4
313.1 K, 12070 kPa, x1 = 0.0102 | 786 ± 4
313.1 K, 12180 kPa, x1 = 0.0487 | 865 ± 4
313.1 K, 12320 kPa, x1 = 0.1024 | 936 ± 4
313.1 K, 12490 kPa, x1 = 0.0247 | 828 ± 4
313.1 K, 12620 kPa, x1 = 0.1024 | 939 ± 4
313.1 K, 12700 kPa, x1 = 0.0102 | 800 ± 4
313.1 K, 12970 kPa, x1 = 0.1024 | 942 ± 4
313.1 K, 13010 kPa, x1 = 0.0247 | 837 ± 4
313.1 K, 13280 kPa, x1 = 0.1024 | 944 ± 4
313.1 K, 13460 kPa, x1 = 0.0102 | 816 ± 4
313.1 K, 13600 kPa, x1 = 0.0247 | 846 ± 4
313.1 K, 13660 kPa, x1 = 0.1024 | 947 ± 4
313.1 K, 14020 kPa, x1 = 0.1024 | 950 ± 4
313.1 K, 14280 kPa, x1 = 0.0247 | 855 ± 4
313.1 K, 14340 kPa, x1 = 0.0102 | 832 ± 4
313.1 K, 14430 kPa, x1 = 0.1024 | 954 ± 4
313.1 K, 14780 kPa, x1 = 0.1024 | 956 ± 4
313.1 K, 14970 kPa, x1 = 0.0247 | 865 ± 4
313.1 K, 15010 kPa, x1 = 0.0102 | 842 ± 4
313.1 K, 15210 kPa, x1 = 0.1024 | 959 ± 4
313.1 K, 15360 kPa, x1 = 0.0247 | 870 ± 4
313.1 K, 15650 kPa, x1 = 0.1024 | 963 ± 4
313.1 K, 15790 kPa, x1 = 0.0247 | 875 ± 4
313.1 K, 16150 kPa, x1 = 0.1024 | 966 ± 4
313.1 K, 16220 kPa, x1 = 0.0247 | 880 ± 4
313.1 K, 16560 kPa, x1 = 0.1024 | 969 ± 4
313.1 K, 16690 kPa, x1 = 0.0247 | 885 ± 4
313.1 K, 17100 kPa, x1 = 0.1024 | 972 ± 4
313.1 K, 17540 kPa, x1 = 0.1024 | 975 ± 4
313.1 K, 18150 kPa, x1 = 0.1024 | 979 ± 4
313.1 K, 18570 kPa, x1 = 0.1024 | 981 ± 4
313.1 K, 18940 kPa, x1 = 0.1024 | 983 ± 4
317.9 K, 9730 kPa, x1 = 0.0102 | 555 ± 4
317.9 K, 9780 kPa, x1 = 0.0102 | 563 ± 4
317.9 K, 9850 kPa, x1 = 0.0102 | 573 ± 4
317.9 K, 9910 kPa, x1 = 0.0102 | 583 ± 4
317.9 K, 9990 kPa, x1 = 0.0102 | 594 ± 4
317.9 K, 10080 kPa, x1 = 0.0102 | 606 ± 4
317.9 K, 10180 kPa, x1 = 0.0102 | 618 ± 4
317.9 K, 10180 kPa, x1 = 0.0247 | 708 ± 4
317.9 K, 10300 kPa, x1 = 0.0102 | 630 ± 4
317.9 K, 10340 kPa, x1 = 0.0247 | 716 ± 4
317.9 K, 10440 kPa, x1 = 0.0102 | 643 ± 4
317.9 K, 10490 kPa, x1 = 0.0247 | 723 ± 4
317.9 K, 10620 kPa, x1 = 0.0102 | 656 ± 4
317.9 K, 10640 kPa, x1 = 0.0247 | 730 ± 4
317.9 K, 10810 kPa, x1 = 0.0102 | 670 ± 4
317.9 K, 10810 kPa, x1 = 0.0247 | 737 ± 4
317.9 K, 11000 kPa, x1 = 0.0247 | 744 ± 4
317.9 K, 11050 kPa, x1 = 0.0102 | 684 ± 4
317.9 K, 11220 kPa, x1 = 0.0247 | 751 ± 4
317.9 K, 11330 kPa, x1 = 0.0102 | 699 ± 4
317.9 K, 11460 kPa, x1 = 0.0247 | 758 ± 4
317.9 K, 11510 kPa, x1 = 0.0487 | 815 ± 4
317.9 K, 11590 kPa, x1 = 0.0487 | 817 ± 4
317.9 K, 11680 kPa, x1 = 0.0102 | 715 ± 4
317.9 K, 11700 kPa, x1 = 0.0487 | 820 ± 4
317.9 K, 11710 kPa, x1 = 0.0247 | 766 ± 4
317.9 K, 11820 kPa, x1 = 0.0487 | 822 ± 4
317.9 K, 11960 kPa, x1 = 0.0247 | 774 ± 4
317.9 K, 11970 kPa, x1 = 0.0487 | 825 ± 4
317.9 K, 12080 kPa, x1 = 0.0487 | 827 ± 4
317.9 K, 12100 kPa, x1 = 0.0102 | 731 ± 4
317.9 K, 12210 kPa, x1 = 0.0487 | 830 ± 4
317.9 K, 12290 kPa, x1 = 0.0247 | 781 ± 4
317.9 K, 12350 kPa, x1 = 0.0487 | 833 ± 4
317.9 K, 12480 kPa, x1 = 0.0487 | 836 ± 4
317.9 K, 12640 kPa, x1 = 0.0102 | 749 ± 4
317.9 K, 12640 kPa, x1 = 0.0487 | 838 ± 4
317.9 K, 12820 kPa, x1 = 0.0247 | 793 ± 4
317.9 K, 12930 kPa, x1 = 0.0487 | 843 ± 4
317.9 K, 13150 kPa, x1 = 0.1024 | 919 ± 4
317.9 K, 13260 kPa, x1 = 0.0102 | 766 ± 4
317.9 K, 13300 kPa, x1 = 0.0487 | 849 ± 4
317.9 K, 13400 kPa, x1 = 0.1024 | 922 ± 4
317.9 K, 13440 kPa, x1 = 0.0247 | 806 ± 4
317.9 K, 13660 kPa, x1 = 0.0487 | 854 ± 4
317.9 K, 13720 kPa, x1 = 0.1024 | 925 ± 4
317.9 K, 13980 kPa, x1 = 0.1024 | 927 ± 4
317.9 K, 14030 kPa, x1 = 0.0487 | 860 ± 4
317.9 K, 14060 kPa, x1 = 0.0102 | 785 ± 4
317.9 K, 14140 kPa, x1 = 0.0247 | 819 ± 4
317.9 K, 14310 kPa, x1 = 0.1024 | 930 ± 4
317.9 K, 14450 kPa, x1 = 0.0487 | 866 ± 4
317.9 K, 14560 kPa, x1 = 0.1024 | 933 ± 4
317.9 K, 14670 kPa, x1 = 0.0247 | 828 ± 4
317.9 K, 14710 kPa, x1 = 0.1024 | 934 ± 4
317.9 K, 14880 kPa, x1 = 0.1024 | 936 ± 4
317.9 K, 15050 kPa, x1 = 0.0102 | 806 ± 4
317.9 K, 15130 kPa, x1 = 0.1024 | 938 ± 4
317.9 K, 15280 kPa, x1 = 0.0247 | 837 ± 4
317.9 K, 15330 kPa, x1 = 0.1024 | 939 ± 4
317.9 K, 15480 kPa, x1 = 0.1024 | 941 ± 4
317.9 K, 15570 kPa, x1 = 0.0247 | 841 ± 4
317.9 K, 15630 kPa, x1 = 0.1024 | 942 ± 4
317.9 K, 15890 kPa, x1 = 0.0102 | 821 ± 4
317.9 K, 15920 kPa, x1 = 0.0247 | 846 ± 4
317.9 K, 15950 kPa, x1 = 0.1024 | 944 ± 4
317.9 K, 16260 kPa, x1 = 0.0247 | 851 ± 4
317.9 K, 16380 kPa, x1 = 0.1024 | 947 ± 4
317.9 K, 16620 kPa, x1 = 0.0247 | 855 ± 4
317.9 K, 16800 kPa, x1 = 0.1024 | 950 ± 4
317.9 K, 16910 kPa, x1 = 0.0102 | 837 ± 4
317.9 K, 17010 kPa, x1 = 0.0247 | 860 ± 4
317.9 K, 17180 kPa, x1 = 0.1024 | 953 ± 4
317.9 K, 17600 kPa, x1 = 0.1024 | 956 ± 4
317.9 K, 18050 kPa, x1 = 0.1024 | 959 ± 4
317.9 K, 18370 kPa, x1 = 0.1024 | 962 ± 4
317.9 K, 18750 kPa, x1 = 0.1024 | 964 ± 4
317.9 K, 18990 kPa, x1 = 0.1024 | 965 ± 4
322.7 K, 10720 kPa, x1 = 0.0102 | 558 ± 4
322.7 K, 10820 kPa, x1 = 0.0102 | 568 ± 4
322.7 K, 10930 kPa, x1 = 0.0102 | 578 ± 4
322.7 K, 11040 kPa, x1 = 0.0102 | 589 ± 4
322.7 K, 11140 kPa, x1 = 0.0102 | 600 ± 4
322.7 K, 11270 kPa, x1 = 0.0102 | 612 ± 4
322.7 K, 11430 kPa, x1 = 0.0102 | 624 ± 4
322.7 K, 11460 kPa, x1 = 0.0247 | 701 ± 4
322.7 K, 11570 kPa, x1 = 0.0247 | 706 ± 4
322.7 K, 11610 kPa, x1 = 0.0102 | 636 ± 4
322.7 K, 11730 kPa, x1 = 0.0247 | 712 ± 4
322.7 K, 11810 kPa, x1 = 0.0102 | 649 ± 4
322.7 K, 11910 kPa, x1 = 0.0247 | 719 ± 4
322.7 K, 12030 kPa, x1 = 0.0102 | 663 ± 4
322.7 K, 12090 kPa, x1 = 0.0247 | 726 ± 4
322.7 K, 12300 kPa, x1 = 0.0102 | 677 ± 4
322.7 K, 12300 kPa, x1 = 0.0247 | 733 ± 4
322.7 K, 12520 kPa, x1 = 0.0247 | 740 ± 4
322.7 K, 12640 kPa, x1 = 0.0102 | 692 ± 4
322.7 K, 12750 kPa, x1 = 0.0247 | 747 ± 4
